± gives the standard deviation of the averaged measurements.
Key:
Assay in all cases: revertant-positive wells per 48 wells (Ames fluctuation test); higher = more mutagenic; extreme values may be limits of the assay
Details in all cases: exposure time: 90 min
[1] = system: Salmonella typhimurium TA1537
Method: (§1)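 Ames MPF Penta 1 microplate fluctuation assay (Xenometrix): bacteria exposed to compound (in DMSO) for 90 min at 37 °C with or without rat liver S9 fraction, then 2-day selection in histidine/tryptophan-free pH-indicator medium in 384-well plates; read-out is the number of revertant (yellow) wells out of 48, triplicate; compound considered mutagenic at >=2-fold over negative (DMSO) control baseline. Zero wells at high doses reflect cytotoxicity.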

[2] = system: Salmonella typhimurium TA98
Method: as §1

[3] = system: Salmonella typhimurium TA100
Method: as §1

[4] = system: Salmonella typhimurium TA1535
Method: as §1

[5] = 0.01 mM, S9 metabolic activation: with S9
[6] = 0.01 mM, S9 metabolic activation: without S9
[7] = 0.05 mM, S9 metabolic activation: with S9
[8] = 0.05 mM, S9 metabolic activation: without S9
[9] = 0.5 mM, S9 metabolic activation: with S9
[10] = 0.5 mM, S9 metabolic activation: without S9
[11] = 1 mM, S9 metabolic activation: with S9
[12] = 1 mM, S9 metabolic activation: without S9
[13] = 5 mM, S9 metabolic activation: with S9
[14] = 5 mM, S9 metabolic activation: without S9
[15] = 10 mM, S9 metabolic activation: with S9
[16] = 10 mM, S9 metabolic activation: without S9

CCCCCC#CC(=O)NO [2-octynohydroxamic acid]
revertant-positive wells per 48 wells [1, 5]: 0.333 ± 0.58 | revertant-positive wells per 48 wells [1, 6]: 1 ± 1 | revertant-positive wells per 48 wells [1, 7]: 1.33 ± 1.1 | revertant-positive wells per 48 wells [1, 8]: 0.333 ± 0.58 | revertant-positive wells per 48 wells [1, 9]: 0 | revertant-positive wells per 48 wells [1, 10]: 1.33 ± 1.5 | revertant-positive wells per 48 wells [1, 11]: 0 | revertant-positive wells per 48 wells [1, 12]: 3 ± 2.6 | revertant-positive wells per 48 wells [1, 13]: 0 | revertant-positive wells per 48 wells [1, 14]: 0 | revertant-positive wells per 48 wells [1, 15]: 0 | revertant-positive wells per 48 wells [1, 16]: 0 | revertant-positive wells per 48 wells [2, 5]: 0 | revertant-positive wells per 48 wells [2, 6]: 1.67 ± 1.5 | revertant-positive wells per 48 wells [2, 7]: 1 ± 1 | revertant-positive wells per 48 wells [2, 8]: 0.333 ± 0.58 | revertant-positive wells per 48 wells [2, 9]: 1 ± 1 | revertant-positive wells per 48 wells [2, 10]: 1.67 ± 1.5 | revertant-positive wells per 48 wells [2, 11]: 0.333 ± 0.58 | revertant-positive wells per 48 wells [2, 12]: 0 | revertant-positive wells per 48 wells [2, 13]: 0 | revertant-positive wells per 48 wells [2, 14]: 0 | revertant-positive wells per 48 wells [2, 15]: 0 | revertant-positive wells per 48 wells [2, 16]: 0 | revertant-positive wells per 48 wells [3, 5]: 9.33 ± 2.3 | revertant-positive wells per 48 wells [3, 6]: 3 ± 1.7 | revertant-positive wells per 48 wells [3, 7]: 6 ± 2 | revertant-positive wells per 48 wells [3, 8]: 3 ± 1 | revertant-positive wells per 48 wells [3, 9]: 0.333 ± 0.58 | revertant-positive wells per 48 wells [3, 10]: 1.33 ± 1.1 | revertant-positive wells per 48 wells [3, 11]: 0 | revertant-positive wells per 48 wells [3, 12]: 0 | revertant-positive wells per 48 wells [3, 13]: 0 | revertant-positive wells per 48 wells [3, 14]: 0 | revertant-positive wells per 48 wells [3, 15]: 0 | revertant-positive wells per 48 wells [3, 16]: 0 | revertant-positive wells per 48 wells [4, 5]: 0.333 ± 0.58 | revertant-positive wells per 48 wells [4, 6]: 1 ± 1 | revertant-positive wells per 48 wells [4, 7]: 2 ± 1.7 | revertant-positive wells per 48 wells [4, 8]: 1 ± 1 | revertant-positive wells per 48 wells [4, 9]: 0.667 ± 1.1 | revertant-positive wells per 48 wells [4, 10]: 1.67 ± 1.5 | revertant-positive wells per 48 wells [4, 11]: 1.33 ± 0.58 | revertant-positive wells per 48 wells [4, 12]: 0.667 ± 1.1 | revertant-positive wells per 48 wells [4, 13]: 0 | revertant-positive wells per 48 wells [4, 14]: 0 | revertant-positive wells per 48 wells [4, 15]: 0 | revertant-positive wells per 48 wells [4, 16]: 0

CC(=O)NO [acetohydroxamic acid]
revertant-positive wells per 48 wells [3, 6]: 3.67 ± 2.3 | revertant-positive wells per 48 wells [3, 7]: 7.33 ± 2.1 | revertant-positive wells per 48 wells [3, 8]: 4.33 ± 0.58 | revertant-positive wells per 48 wells [3, 9]: 7.33 ± 1.5 | revertant-positive wells per 48 wells [3, 11]: 10.3 ± 1.5 | revertant-positive wells per 48 wells [3, 12]: 5.67 ± 0.58 | revertant-positive wells per 48 wells [3, 13]: 15 ± 2 | revertant-positive wells per 48 wells [3, 14]: 13.3 ± 4.7 | revertant-positive wells per 48 wells [3, 15]: 18.7 ± 2.5 | revertant-positive wells per 48 wells [3, 16]: 17.3 ± 4

CCCCCCCC(=O)NO [octanohydroxamic acid]
revertant-positive wells per 48 wells [1, 7]: 1 | revertant-positive wells per 48 wells [1, 9]: 0 | revertant-positive wells per 48 wells [1, 11]: 0 | revertant-positive wells per 48 wells [1, 13]: 0 | revertant-positive wells per 48 wells [1, 14]: 0 | revertant-positive wells per 48 wells [1, 15]: 0 | revertant-positive wells per 48 wells [1, 16]: 0 | revertant-positive wells per 48 wells [3, 5]: 3.67 ± 1.5 | revertant-positive wells per 48 wells [3, 6]: 5 ± 3.6 | revertant-positive wells per 48 wells [3, 7]: 6.33 ± 1.5 | revertant-positive wells per 48 wells [3, 8]: 7.67 ± 1.5 | revertant-positive wells per 48 wells [3, 10]: 6 ± 2.6 | revertant-positive wells per 48 wells [3, 12]: 8.67 ± 0.58 | revertant-positive wells per 48 wells [3, 13]: 5 ± 1.7 | revertant-positive wells per 48 wells [3, 14]: 0 | revertant-positive wells per 48 wells [3, 15]: 0 | revertant-positive wells per 48 wells [3, 16]: 0 | revertant-positive wells per 48 wells [4, 6]: 1 ± 1 | revertant-positive wells per 48 wells [4, 7]: 2 | revertant-positive wells per 48 wells [4, 14]: 0 | revertant-positive wells per 48 wells [4, 15]: 0 | revertant-positive wells per 48 wells [4, 16]: 0
